Legend:
[1] = test system: Normal human epidermal melanocytes (NHEM); test: Growth of cultured cells, hemocytometer counting; assay type: cell-based
Text: A super-repressor form of human IκBα (S32, 36A) resistant to degradation and mutant IKKβ […]) was kindly provided by Javier […] Cancer Center, University of California-San Diego School of Medicine). Antibodies to IKKα (H-744), IKKβ (H-470), Bcl-2, Bax and AIF were purchased from Santa Cruz Biotechnology, Inc. (Santa Cruz, Calif.). […] N-acetyl-L-cysteine (NAC) and Tiron were from Sigma-Aldrich (St. Louis, Mo.). Normal human epidermal melanocytes (NHEM) were provided by the Skin Disease Research Center in Vanderbilt University School of Medicine. NHEM were cultured in 154 medium with 1× human melanocyte growth supplement (Cascade Biologicals, Inc.). The melanoma cell lines, Sk Mel5, A375 and Hs294T, originally established from human metastatic melanoma, were purchased from American Type Culture Collection and cultured in DMEM: Ham's F-12 medium containing 10% FBS, 2 mM of L-glutamine, 100 μM of MEM Non-Essential Amino Acids (Life Technologies, Inc.), and 1 mM of sodium pyruvate (Sigma Chemical Co.). Aberrant activation of NF-κB has been associated with carcinogenesis, and constitutively high IKK activity has been detected in many tumor types, including human melanoma (Yang & Richmond, 2001; […] et al., 2003; […] et al., 2003). IKK is a major regulator of the NF-κB pathway and therefore represents an attractive therapeutic target in advanced cancers. […] After three days of culture, the cell numbers were determined by hemocytometer counting (Table 1).

[2] = test system: NF-κB; test: NF-κB-dependent luciferase reporter assay; assay type: cell-based, human; details: 36 h
Method: FIGS. 2A-2D. […] SK-Mel-5 cells were plated in 6-well plates (1.5×10^5 cells per well) and then cotransfected with 1 μg of HIV long terminal repeat NF-κB-luciferase vector and β-galactosidase vector DNA using Lipofectamine Plus reagent. Twenty-four hours after transfection, cells in duplicate plates were treated with 0, 0.1, 1 and 10 μM of BMS-345541in DMSO and incubated for an additional 36 h. Cell extract was prepared and luciferase activity was detected. Luciferase activity was normalized to β-galactosidase activity. […] ATP. The [γ-^32P]-labeled IκBα protein was visualized by autoradiography. […] The supernatants from B were cleared by centrifugation, or (FIG. 2D) sera were collected from mice, and subjected to ELISA assay for CXCL1 according to the manufacture's protocol. Data shown are from a representative data set from two experiments performed in duplicate (total n=4 for each point). For ELISA; the mean value is representative of serum samples from five mice.

[3] = test system: mitochondria isolated from SK-Mel-5; test: Cytochrome-c release from isolated mitochondria; design: species or system human; details: 10 μM, 4° C., 30 min
Method: FIGS. 5A-5E. […] (FIG. 5A) Redistribution of Bcl-2 and Bax in mitochondria. […] Subcellular mitochondria and cytoplasm were prepared and subjected to Western blot analysis for Bcl-2 and Bax. (FIG. 5B) Dissipation of mitochondrial Δψm. […] After exposure, mitochondria were isolated and incubated with 80 μM 3,3′dihexyloxacarbocyanine iodide (DiOC6) at 37° C. for 15 min. Δψm was determined by FACS analysis using 484/530 nm filters within 10 min while gating the forward and sideward scatters on intact mitochondria (FIG. 5C). (FIG. 5D) Release of cytochrome-C and AIF. […] Subcellular extracts were prepared and subjected to Western blot analysis for cytochrome-C and AIF. […] The supernatant was assessed for cytochrome-c release. […]
The Mitochondria Isolation Kit (Pierce, Rockford, Ill.) was used for isolation of mitochondria from cultured melanoma cells according to the manufacture's instruction for the Reagent-based method. […] The purity of mitochondria was determined by Western blotting with β-actin, where β-actin negative preparation were fully to be pure. […]
Mitochondria play a crucial role in the regulation of programmed cell death (Zamzami et al., 1995a; 1995b; 1996a; 1996b). […] To investigate alteration of the apoptotic proteins in mitochondria during BMS-345541-induced apoptosis, the ratio of Bcl-2 and Bax distributed in mitochondria was analyzed in SK-Mel-5 cells using Western blot. […]

[4] = test system: caspase-3; test: Caspase-3 activity assay (Ac-DEVD-pNA) in cytosol extracts; assay type: cell-based, human

Structure (SMILES): Cc1ccc2nc(NCCN)c3ncc(C)n3c2c1.Cl [BMS-345541, 4(2′-aminoethyl)amino-1,8-dimethylimidazo(1,2-a)quinoxaline]
- cell number after three days of culture ([1]; 0.1 μM): 4.8 ± 0.28
- cell number after three days of culture ([1]; 1.0 μM): 4.9 ± 0.38
- cell number after three days of culture ([1]; 10 μM): 0.18 ± 0.04
- reduction in NF-κB-dependent luciferase activity ([2]; SK-Mel-5, 0.1 μM): 36%
- reduction in NF-κB-dependent luciferase activity ([2]; SK-Mel-5, 1.0 μM): 75%
- reduction in NF-κB-dependent luciferase activity ([2]; SK-Mel-5, 10 μM): 95%
- direct action on isolated mitochondria (cytochrome-c release into supernatant) [3]: no direct action
- specific caspase-3 activity ([4]; SK-Mel-5, 10 μM BMS-345541, 36 h): 1.6±0.092 pmol/min/μg protein
- specific caspase-3 activity ([4]; SK-Mel-5, 10 μM BMS-345541 in combination with 50 μM Z-VAD-fmk, 36 h): 0.44±0.035 pmol/min/μg protein

— patent US20060025419A1, “Imidazoquinoxaline compound for the treatment of melanoma” (priority 2004, published 2006)
